“And” between values parts separate entries of the source, which are not always exact repeats. Equal entries are not always repeated.
Tests used:
[1] = ref Timchalk et al. [2007], cited from earlier work
[2] = Concentration of pesticides and metabolites in plasma of rats after 90-day gavage exposure to a pesticide mixture; assay type: in vivo, rat; details: for Slope (linear fit), concentration in plasma versus level of exposure: exposure expressed as mg/kg per day, concentration as ng/mL, detected values only
Experimental: (§1) Eight rats were randomly assigned to each of the experimental groups. A low-calorie water gel that contained the pesticides was administered via gavage to these rats three times per week for 90 days. The doses of the pesticides mixture used for exposure were 4, 10, 20, 40, 100, 200, and 400 µg/kg of body weight. The exposure range was set as follows: The lowest dose was the lowest level allowing the detection of pesticides in hair after a 90-day exposure, based on preliminary experiments not detailed here. Testing lower levels would not have been relevant because some compounds would not be detected anymore (analytical limitation). In addition, for some other compounds, no differences were detected in the current experiment between the lowest level of exposure and the background exposure of the controls. The highest dose was set according to toxicity of compounds, which corresponded to 1/20 of the lowest LD50 (carbofuran). The animals were weighed before each administration in order to adapt the amount of pesticide-containing mixture to the animals’ weight.
(§2) The animals were shaved before the experiment began to ensure that the hair collected at the end of the study accurately reflected the 90-day period of exposure. White and black hairs were collected separately, placed in aluminum foil, and stored at −20 °C until analysis. Blood was collected in EDTA tube from the tail vein, 3 h after oral administration on Day 90. Each sampling (500–750 µL) was immediately centrifuged at 5000×g for 3 min at room temperature, and plasma was separated and stored at −80 °C before analysis. For urine collection, the rats were placed in individual metabolic cages (Type 304 stainless steel, Techniplast, Zwaag, Netherlands) immediately after gavage for 24 h (from Day 88 to Day 89). The urine was collected in refrigerated tubes over a 24-h period and was weighed before storage at −20 °C.
(§3) Depending on the compounds, only parent pesticides, only metabolites, or both parent and metabolites were analyzed in the biological matrices. The chemicals were analyzed as previously described (Chata et al. [2016]; Hardy et al. [2015]). Despite the different nature of the biological matrices analyzed (liquid vs. solid), method protocols were developed to ensure similarity so they could be reliably compared to the information obtained from each matrix, thereby ensuring that differences were not likely attributable to analytical bias. […] Because analytical background noise was absent from the chromatograms because tandem mass spectrometry was used, the approaches based on background noise for determining the limit of detection (LOD) were not applicable. The LOD was therefore determined as the lowest concentration that was detected in the samples analyzed during this study. Selectivity was ensured by analyte retention time and by the quantification transition to confirmation transition ratio that had to be lower than the 20% difference from the ratio obtained with standard compounds. The LOD ranged from 0.02 pg/mg for β-endosulfan to 2.7 pg/mg for dichlorodiphenyltrichloroethane (p,p′-DDT) in hair, from 0.2 pg/mL for trifluralin to 13.6 ng/mL for 2-isopropoxyphenol (2-IPP) in urine, and from 2.4 pg/mL for β-endosulfan to 679 pg/mL for p,p′-DDT in plasma. Because the analysis of parent pesticides and metabolites was conducted on the same hair sample, the addition of parent organophosphate isotope-labeled analog standards was not possible because their degradation into non-labeled dialkyl phosphate (DAP) during the analytical procedure would have hindered the analysis of DAP due to exposure. In hair, only organophosphate metabolites (not parents) were therefore quantified, and only qualitative results were obtained for parents.
(§4) The association between the level of exposure and the analyte concentration in the matrix (i.e., hair, urine, and plasma) was assessed by the Pearson product-moment correlation coefficient (R Pearson). […]

[3] = Influence of hair pigmentation: concentration in white hair versus pigmented hair; assay type: in vivo, rat; details: slope close to 1 = poor influence of pigmentation
Experimental: as §2
The influence of hair pigmentation on pesticide incorporation was assessed by comparing the concentration detected in white hair versus pigmented hair which were collected and analyzed separately from each animal. […] For the majority of the chemicals tested during the current study, pigmentation seemed to have a very limited effect on the concentration in hair, and only few compounds seemed to be pigmentation sensitive.

[4] = Concentration of pesticides and metabolites in hair of rats after 90-day gavage exposure to a pesticide mixture; assay type: in vivo, rat; details: exposure expressed as mg/kg per day, concentration as pg/mg, detected values only
Experimental: as §1, §2, §3, §4

[5] = Concentration of pesticides and metabolites in 24-h urine of rats after 90-day gavage exposure to a pesticide mixture; assay type: in vivo, rat; details: for Slope (linear fit), concentration in urine versus level of exposure: exposure expressed as mg/kg per day, concentration as ng/mL, detected values only
Experimental: as §1, §2, §3, §4

Structure (SMILES)	Metabolization of the parent compound [1] [h]	Mean concentration in plasma ([2]; control group) [ng/mL]	Mean concentration in plasma ([2]; most exposed group) [ng/mL]	Slope (linear fit), concentration in plasma versus level of exposure [2]	Slope, concentration in white hair versus pigmented hair [3]	Half-life for α-phase in rat blood ([1]; after oral dosing of chlorpyrifos) [min]	Slope (linear fit), concentration in hair versus level of exposure [4]	Slope (linear fit), concentration in urine versus level of exposure [5]	Concentration in urine, single point out of scale ([5]; dosage of 200 µg/kg, one animal, not presented in Fig. 1) [ng/mL]
CCOP(=S)(OCC)Oc1nc(Cl)c(Cl)cc1Cl [Chlorpyrifos]	0.2	0.15 ± 0.01	0.41 ± 0.09	1.24					
CCOP(=O)(O)OCC [DEP, diethyl phosphate]					0.892	12	4.54	2.0 E + 06	
Cl[C@H]1[C@H](Cl)[C@@H](Cl)[C@H](Cl)[C@@H](Cl)[C@@H]1Cl [β-HCH, β-hexachlorocyclohexane]				199	1.021		612 and 612.6	6 297	
Cl[C@H]1[C@H](Cl)[C@@H](Cl)[C@@H](Cl)[C@H](Cl)[C@H]1Cl [γ-HCH, γ-hexachlorocyclohexane]				47.2	0.969		119.8	5 715	9

— publication PMC5515982, “Hair analysis for the biomonitoring of pesticide exposure: comparison with blood and urine in a rat model” (Archives of Toxicology, 2016)
